Measured values as given in patent US12240862B2, “Inhibitors of peptidylarginine deiminases” (Gilead Sciences, Inc., priority 2020, dated 2025).

Each compound was assayed against T1, human PAD4 (Homo sapiens, UniProt Q9UM07) (assay: In vitro PAD4 BAEE biochemical assay). Conditions: human PAD4, BAEE substrate; 5 nM PAD4, 2 mM calcium chloride, 3 mM BAEE; geometric mean of multiple experiments.
T1 construct: human PAD4 (NM_012387), A2P663, was PCR amplified; His-SUMO (N, cleaved yes); made in house; host or cells: E. coli BL21(DE3)
T1 sequence (Q9UM07 2-663): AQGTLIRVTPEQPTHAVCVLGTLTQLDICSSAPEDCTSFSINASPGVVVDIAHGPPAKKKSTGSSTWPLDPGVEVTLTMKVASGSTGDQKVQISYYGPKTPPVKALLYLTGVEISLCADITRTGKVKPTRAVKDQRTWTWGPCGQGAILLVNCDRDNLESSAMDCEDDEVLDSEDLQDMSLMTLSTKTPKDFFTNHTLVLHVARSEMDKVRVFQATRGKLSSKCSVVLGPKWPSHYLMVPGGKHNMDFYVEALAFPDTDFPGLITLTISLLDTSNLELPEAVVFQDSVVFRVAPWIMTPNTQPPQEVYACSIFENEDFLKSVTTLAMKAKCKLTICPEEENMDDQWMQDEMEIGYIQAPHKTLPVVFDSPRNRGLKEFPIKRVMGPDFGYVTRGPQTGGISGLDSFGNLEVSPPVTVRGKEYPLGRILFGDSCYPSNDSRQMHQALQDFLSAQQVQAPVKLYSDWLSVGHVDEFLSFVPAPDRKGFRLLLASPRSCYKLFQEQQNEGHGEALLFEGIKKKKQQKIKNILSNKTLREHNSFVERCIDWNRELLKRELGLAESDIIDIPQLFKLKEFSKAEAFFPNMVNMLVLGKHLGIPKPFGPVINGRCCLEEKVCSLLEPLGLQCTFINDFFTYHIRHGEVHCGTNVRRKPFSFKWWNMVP
Outline: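 Ammonia release from BAEE deimination monitored by o-phthalaldehyde amine coupling (1 h, 25 °C) after EDTA stop. Final conditions: 5 nM tag-free recombinant human PAD4 (E. coli), 2 mM CaCl2, 3 mM BAEE, pH 7.6 MOPS with DTT; 30 min compound preincubation, then 2 h reaction at 25 °C.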

SMILES | IC50
COc1cc(C(=O)N2[C@H]3CC[C@@H]2[C@H](N)C3)cc2nc(-c3cc4ccc([C@@H](C)NC(=O)C5(C)COC5)nc4n3CC3CC3)c(C)n12 [Example 166, ~{N}-[(1~{R})-1-[2-[7-[(1~{R},2~{R},4~{S})-2-amino-7-azabicyclo[2.2.1]heptane-7-carbonyl]-5-methoxy-3-methylimidazo [1,2-a]pyridin-2-yl]-1-(cyclopropylmethyl)pyrrolo [2,3-b]pyridin-6-yl]ethyl]-3-methyloxetane-3-carboxamide] | 56 nM
COc1cc(C(=O)N2C[C@H]3C[C@H](C)[C@@H]2[C@@H]3N)cc2nc(-c3cc4ccc([C@@H](C)NC(=O)C(C)(C)C)nc4n3CC3CC3)c(C)n12 [Example 167, N-((R)-1-(2-(7-((1R,4R,6S,7R)-7-amino-6-methyl-2-azabicyclo[2.2.1]heptane-2-carbonyl)-5-methoxy-3-methylimidazo [1,2-a]pyridin-2-yl)-1-(cyclopropylmethyl)-1H-pyrrolo [2,3-b]pyridin-6-yl)ethyl) pivalamide] | 2700 nM
COc1cc(C(=O)N2[C@H]3CC[C@@H]2[C@H](N)C3)cc2nc(-c3cc4ccc(C(C)(C)NC(=O)C(C)(C)C)nc4n3CC3CC3)c(C)n12 [Example 168, ~{N}-[2-[2-[7-[(1~{R},2~{R},4~{S})-2-amino-7-azabicyclo[2.2.1]heptane-7-carbonyl]-5-methoxy-3-methylimidazo [1,2-a]pyridin-2-yl]-1-(cyclopropylmethyl)pyrrolo [2,3-b]pyridin-6-yl]propan-2-yl]-2,2-dimethylpropanamide] | 171 nM
COc1cc(C(=O)N2[C@H]3CC[C@@H]2[C@H](N)C3)cc2nc(-c3cc4ccc([C@@H](C)NC(=O)C56CC(F)(C5)C6)nc4n3CC3CC3)c(C)n12 [Example 169, N—((R)-1-(2-(7-((1R,2R,4S)-2-amino-7-azabicyclo[2.2.1]heptane-7-carbonyl)-5-methoxy-3-methylimidazo[1,2-a]pyridin-2-yl)-1-(cyclopropylmethyl)-1H-pyrrolo[2,3-b]pyridin-6-yl)ethyl)-3-fluorobicyclo[1.1.1]pentane-1-carboxamide] | 68.5 nM
COc1cc(C(=O)N2[C@@H]3CC[C@@H](N)[C@H]2CC3)cc2nc(-c3cc4ccc([C@@H](C)NC(=O)C(C)(C)C)nc4n3CC3CC3)c(C)n12 [Example 170, ~{N}-[(1~{R})-1-[2-[7-[(1~{R},2~{R},5~{R})-2-amino-8-azabicyclo[3.2.1]octane-8-carbonyl]-5-methoxy-3-methylimidazo [1,2-a]pyridin-2-yl]-1-(cyclopropylmethyl)pyrrolo [2,3-b]pyridin-6-yl]ethyl]-2,2-dimethylpropanamide] | 161 nM
COc1cc(C(=O)N2[C@H]3CC[C@@H]2[C@H](N)C3)cc2nc(-c3cc4ccc([C@@H](C)NC(=O)C(C)(C)C(F)(F)F)nc4n3CC3CC3)c(C)n12 [Example 171, ~{N}-[(1~{R})-1-[2-[7-[(1~{R},2~{R},4~{S})-2-amino-7-azabicyclo[2.2.1]heptane-7-carbonyl]-5-methoxy-3-methylimidazo [1,2-a]pyridin-2-yl]-1-(cyclopropylmethyl)pyrrolo [2,3-b]pyridin-6-yl]ethyl]-3,3,3-trifluoro-2,2-dimethylpropanamide] | 179 nM
COc1cc(C(=O)N2[C@H]3CC[C@@H]2[C@H](N)C3)cc2nc(-c3cc4ccc([C@@H](C)NC(=O)C(C)(C)OC)nc4n3CC3CC3)c(C)n12 [Example 172, ~{N}-[(1~{R})-1-[2-[7-[(1~{R},2~{R},4~{S})-2-amino-7-azabicyclo[2.2.1]heptane-7-carbonyl]-5-methoxy-3-methylimidazo [1,2-a]pyridin-2-yl]-1-(cyclopropylmethyl)pyrrolo [2,3-b]pyridin-6-yl]ethyl]-2-methoxy-2-methylpropanamide] | 98.3 nM
COc1cc(C(=O)N2C[C@H]3C[C@H](O)[C@@H]2[C@@H]3N)cc2nc(-c3cc4ccc([C@@H](C)NC(=O)C(C)(C)C)nc4n3CC3CC3)c(C)n12 [Example 173, N-((R)-1-(2-(7-((1S,4R,6S,7R)-7-amino-6-hydroxy-2-azabicyclo [2.2.1]heptane-2-carbonyl)-5-methoxy-3-methylimidazo [1,2-a]pyridin-2-yl)-1-(cyclopropylmethyl)-1H-pyrrolo[2,3-b]pyridin-6-yl)ethyl)pivalamide] | 497 nM
COc1cc(C(=O)N2C[C@H]3CC[C@@H]2[C@@H]3N)cc2nc(-c3cc4ccc([C@@H](C)NC(=O)C(C)(C)C)nc4n3CC3CC3)c(C)n12 [Example 174, N-((R)-1-(2-(7-((1R,4R,7R)-7-amino-2-azabicyclo[2.2.1]heptane-2-carbonyl)-5-methoxy-3-methylimidazo[1,2-a]pyridin-2-yl)-1-(cyclopropylmethyl)-1H-pyrrolo [2,3-b]pyridin-6-yl)ethyl) pivalamide] | 297 nM

Next, values leading:

IC50 | SMILES
181 nM | COc1cc(C(=O)N2[C@H]3CC[C@@H]2[C@H](N)C3)cc2nc(-c3cc4ccc([C@@H](C)NC(=O)c5ccccn5)nc4n3CC3CC3)c(C)n12 [Example 175, ~{N}-[(1~{R})-1-[2-[7-[(1~{R},2~{R},4~{S})-2-amino-7-azabicyclo[2.2.1]heptane-7-carbonyl]-5-methoxy-3-methylimidazo [1,2-a]pyridin-2-yl]-1-(cyclopropylmethyl)pyrrolo [2,3-b]pyridin-6-yl]ethyl]pyridine-2-carboxamide]
88.7 nM | COc1cc(C(=O)N2[C@H]3CC[C@@H]2[C@H](N)C3)cc2nc(-c3cc4ccc([C@@H](C)NC(=O)c5ccccc5)nc4n3CC3CC3)c(C)n12 [Example 176]
76.3 nM | COc1cc(C(=O)N2[C@H]3CC[C@@H]2[C@H](N)C3)cc2nc(-c3cc4ccc([C@@H](C)NC(=O)C(C)(C)C)nc4n3CC3CC3)c(C)n12 [Example 177, N—((R)-1-(2-(7-((1R,2R,4S)-2-amino-7-azabicyclo[2.2.1]heptane-7-carbonyl)-5-methoxy-3-methylimidazo[1,2-a]pyridin-2-yl)-1-(cyclopropylmethyl)-1H-pyrrolo[2,3-b]pyridin-6-yl)ethyl)pivalamide]
89.4 nM | COc1cc(C(=O)N2[C@H]3CC[C@@H]2[C@H](N)C3)cc2nc(-c3cc4ccc([C@@H](C)NC(C)=O)nc4n3CC3CC3)c(C3CC3)n12 [Example 178, ~{N}-[(1~{R})-1-[2-[7-[(1~{R},2~{R},4~{S})-2-amino-7-azabicyclo[2.2.1]heptane-7-carbonyl]-3-cyclopropyl-5-methoxyimidazo [1,2-a]pyridin-2-yl]-1-(cyclopropylmethyl)pyrrolo [2,3-b]pyridin-6-yl]ethyl] acetamide]
85 nM | COc1cc(C(=O)N2[C@H]3CC[C@@H]2[C@H](N)C3)cc2nc(-c3cc4ccc([C@@H](C)NC(C)=O)nc4n3CC3CC3)c(C)n12 [Example 179, ~{N}-[(1~{R})-1-[2-[7-[(1~{R},2~{R},4~{S})-2-amino-7-azabicyclo[2.2.1]heptane-7-carbonyl]-5-methoxy-3-methylimidazo [1,2-a]pyridin-2-yl]-1-(cyclopropylmethyl)pyrrolo [2,3-b]pyridin-6-yl]ethyl] acetamide]
494 nM | COc1cc(C(=O)N2CC[C@H]3CCCN[C@H]3C2)cc2nc(-c3cc4ccc([C@@H](C)NC(=O)C56CC(F)(C5)C6)nc4n3CC3CC3)c(C)n12 [Example 180, ~{N}-[(1~{R})-1-[2-[7-[(4~{a}~{R},8~{a}~{R})-2,3,4,4~{a},5,6,8,8~{a}-octahydro-1~{H}-1,7-naphthyridine-7-carbonyl]-5-methoxy-3-methylimidazo [1,2-a]pyridin-2-yl]-1-(cyclopropylmethyl)pyrrolo [2,3-b]pyridin-6-yl]ethyl]-3-fluorobicyclo[1.1.1]pentane-1-carboxamide]
10500 nM | COc1cc(C(=O)N2CC[C@@H]3CCCN[C@@H]3C2)cc2nc(-c3cc4ccc([C@@H](C)NC(=O)C56CC(F)(C5)C6)nc4n3CC3CC3)c(C)n12 [Example 181, ~{N}-[(1~{R})-1-[2-[7-[(4~{a}~{S},8~{a}~{S})-2,3,4,4~{a},5,6,8,8~{a}-octahydro-1~{H}-1,7-naphthyridine-7-carbonyl]-5-methoxy-3-methylimidazo [1,2-a]pyridin-2-yl]-1-(cyclopropylmethyl)pyrrolo [2,3-b]pyridin-6-yl]ethyl]-3-fluorobicyclo[1.1.1]pentane-1-carboxamide]
1360 nM | COc1cc(C(=O)N2[C@@H]3CC[C@H]2[C@@H](N)[C@@H](OC)C3)cc2nc(-c3cc4ccc([C@@H](C)NC(=O)C56CC(F)(C5)C6)nc4n3CC3CC3)c(C)n12 [Example 182]
237 nM | COc1cc(C(=O)N2[C@H]3CC[C@@H]2[C@H](N)[C@H](OC)C3)cc2nc(-c3cc4ccc([C@@H](C)NC(=O)C56CC(F)(C5)C6)nc4n3CC3CC3)c(C)n12 [Example 183, ~{N}-[(1~{R})-1-[2-[7-[(1~{R},2~{S},3~{R}, 5~{S})-2-amino-3-methoxy-8-azabicyclo [3.2.1]octane-8-carbonyl]-5-methoxy-3-methylimidazo [1,2-a]pyridin-2-yl]-1-(cyclopropylmethyl)pyrrolo [2,3-b]pyridin-6-yl]ethyl]-3-fluorobicyclo[1.1.1]pentane-1-carboxamide]
17700 nM | COc1cc(C(=O)N(C)C)cc2nc(-c3cc4ccc([C@@H](C)N(C)C(=O)c5ccccc5)nc4n3CC3CC3)c(C)n12 [Example 184, 2-[6-[(1~{R})-1-[benzoyl (methyl)amino]ethyl]-1-(cyclopropylmethyl)pyrrolo [2,3-b]pyridin-2-yl]-5-methoxy-~{N},~{N},3-trimethylimidazo[1,2-a] pyridine-7-carboxamide]
139 nM | COc1cc(C(=O)N2[C@H]3CC[C@@H]2[C@H](N)C3)cc2nc(-c3cc4ccc([C@@H](C)N(C)C(=O)c5ccccc5)nc4n3CC3CC3)c(C)n12 [Example 185, ~{N}-[(1~{R})-1-[2-[7-[(1~{R},2~{R},4~{S})-2-amino-7-azabicyclo[2.2.1]heptane-7-carbonyl]-5-methoxy-3-methylimidazo [1,2-a]pyridin-2-yl]-1-(cyclopropylmethyl)pyrrolo [2,3-b]pyridin-6-yl]ethyl]-~{N}-methylbenzamide]
